Reference: the NIST ThermoML archive (doi:10.1016/j.fluid.2006.04.014)

Details: Liquid, Closed cell (Static) method

FCC(F)(F)F [1,1,1,2-tetrafluoroethane]
Details | vapor or sublimation pressure [kPa]
263.15 K | 202.6
268.15 K | 245.5
273.15 K | 294.12
283.15 K | 416.6

CCF [fluoroethane]
Details | vapor or sublimation pressure [kPa]
253.15 K | 216.2
258.15 K | 261.4
263.15 K | 311.9
265.65 K | 342.3
268.15 K | 372.2
270.65 K | 405.3
273.15 K | 438.1
275.15 K | 468.9
278.15 K | 517.1
281.15 K | 567.1
283.15 K | 602.9
285.65 K | 650.2
288.15 K | 699
290.65 K | 752.4
293.15 K | 808.2
295.65 K | 866
298.15 K | 924.2
300.65 K | 990.3
303.15 K | 1051.4
305.65 K | 1121.5
308.15 K | 1192.8
310.65 K | 1269.5
313.15 K | 1348.6
315.65 K | 1428.6
318.5 K | 1516.5
320.65 K | 1607.1
323.15 K | 1703.9
